Assay results as given in patent US20140011757A1, “NOVEL MACROLIDE DERIVATIVE” (MEIJI SEIKA PHARMA CO., LTD., priority 2011, published 2014).
Converted amounts (≈) assume the structure as drawn. “And” between values parts separate entries of the source, which are not always exact repeats. Equal entries are not always repeated. Where two headings read alike, the source gives them in different places.

How the values were obtained:
[1] = test system: H. parasuis; experiment: In vitro antibacterial activity, broth microdilution MIC (CLSI M31-A2); type: cell-based, Haemophilus parasuis
Experimental: (§1) Hereinafter, a description is made of an evaluation method for the compound. The compound was measured for its in vitro antibacterial activity by a broth microdilution method in accordance with a CLSI method (formerly NCCLS method, […]-A2) (Performance Standards for Antimicrobial Disk and Dilution Susceptibility Tests for Bacteria Isolated from Animals; Approved Standard-Second Edition NCCLS […]-A2 Vol. 22 No. 6 2002). A medium used was BBL Mueller Hinton II broth supplemented with lysed horse blood and NAD. A test drug solution at each concentration level obtained by dissolving a test drug in ethanol and then diluting the resultant with the liquid medium described above was dispensed into a 96-well microplate, and a test bacterial strain was inoculated. After having been cultured in the presence of 5% CO2 at 37° C. for 20 to 24 hours, the test bacterial strain was visually observed for the presence or absence of its growth. A minimum drug concentration completely inhibiting the growth of the test bacterial strain was defined as a minimum inhibitory concentration (hereinafter, referred to as MIC). The compound obtained in the present invention was measured for its in vitro antibacterial activity by a broth microdilution method in accordance with a CLSI method (formerly NCCLS method, […]-A2) (Performance Standards for Antimicrobial Disk and Dilution Susceptibility Tests for Bacteria Isolated from Animals; Approved Standard-Second Edition NCCLS […]-A2 Vol. 22 No. 6 2002). A medium composition used in the measurement is shown below. […] The resultant test drug solution was further subjected to two-step dilution with the liquid medium described above to prepare a test drug solution at each concentration level. The thus prepared test drug solution at each concentration level was dispensed into a 96-well microplate at 100 μL/well, and a test bacterial strain was inoculated at about 5×10^4 CFU/well. After having been cultured in the presence of 5% CO2 at 37° C. for 20 to 24 hours, the test bacterial strain was visually observed for the presence or absence of its growth. A minimum drug concentration completely inhibiting the growth of the test bacterial strain was defined as a minimum inhibitory concentration (hereinafter, referred to as MIC). […] Saponin was dissolved with purified water. The solution was sterilized and then added to defibrinated horse blood.

[2] = test system: A. pleuropneumoniae; experiment: as above; type: cell-based, Actinobacillus pleuropneumoniae
Experimental: as §1

[3] = test system: M. haemolytica; experiment: as above; type: cell-based, Mannheimia haemolytica
Experimental: as §1

[4] = test system: P. multocida; experiment: as above; type: cell-based, Pasteurella multocida
Experimental: as §1

[5] = test system: H. somni; experiment: as above; type: cell-based, Histophilus somni
Experimental: as §1

[6] = test system: main pathogens of bacterial respiratory tract infections in livestock animals such as cattle and swine; type: cell-based
[7] = Glaesserella parasuis, H. parasuis strain 11510-1, read-out: MIC
[8] = Glaesserella parasuis, H. parasuis strain 11640-1, read-out: MIC
[9] = Actinobacillus pleuropneumoniae, A. pleuropneumoniae strain 10895-2, read-out: MIC
[10] = Actinobacillus pleuropneumoniae, A. pleuropneumoniae strain 11684-7, read-out: MIC
[11] = Actinobacillus pleuropneumoniae, A. pleuropneumoniae strain 11796-1, read-out: MIC
[12] = Actinobacillus pleuropneumoniae, A. pleuropneumoniae strain 11804-2, read-out: MIC
[13] = Actinobacillus pleuropneumoniae, ATCC27089, A. pleuropneumoniae strain ATCC27089, read-out: MIC
[14] = Mannheimia haemolytica, M. haemolytica strain 11443, read-out: MIC
[15] = Mannheimia haemolytica, M. haemolytica strain 11467-2, read-out: MIC
[16] = Pasteurella multocida, ATCC43019, P. multocida (bovine) strain ATCC43019, read-out: MIC
[17] = Pasteurella multocida, ATCC43137, P. multocida (swine) strain ATCC43137, read-out: MIC
[18] = Pasteurella multocida, P. multocida (bovine) strain 11272, read-out: MIC
[19] = Pasteurella multocida, P. multocida (bovine) strain 11325-1, read-out: MIC
[20] = Pasteurella multocida, P. multocida (bovine) strain 11787-24, read-out: MIC
[21] = Pasteurella multocida, P. multocida (swine) strain 11587-3, read-out: MIC
[22] = Pasteurella multocida, P. multocida (swine) strain 11745-15, read-out: MIC
[23] = Histophilus somni, H. somni strain 11321, read-out: MIC
[24] = Histophilus somni, H. somni strain 11423-3, read-out: MIC

| Compound | MIC [1, 7] | MIC [1, 8] | MIC [2, 9] | MIC [2, 10] | MIC [2, 11] | MIC [2, 12] | MIC [2, 13] | MIC [3, 14] | MIC [3, 15] | MIC [4, 16] | MIC [4, 17] | MIC [4, 18] | MIC [4, 19] | MIC [4, 20] | MIC [4, 21] | MIC [4, 22] | MIC [5, 23] | MIC [5, 24] | further results |
| --- | --- | --- | --- | --- | --- | --- | --- | --- | --- | --- | --- | --- | --- | --- | --- | --- | --- | --- | --- |
| CO[C@@H]1C(OC2O[C@@H](C)C(O)C(N(C)C)C2O)[C@@H](CC=O)C[C@@H](C)[C@@H](OC(C)=O)/C=C/[C@@H](N(C)CCCc2ccnc3ccccc23)[C@@H](O)C[C@@H](C)OC(=O)C[C@H]1OC(C)=O (stereo partly shown) [Compound of formula (I)] | 0.5 mg/L | 4 mg/L | 4 mg/L | 32 mg/L | 4 mg/L | 8 mg/L | 4 mg/L | 4 mg/L | 4 mg/L | 4 mg/L | 4 mg/L | 4 mg/L | 2 mg/L | 4 mg/L | 4 mg/L | 4 mg/L | 0.5 mg/L | 1 mg/L | MIC corresponding to an activity enhanced as compared to josamycin [6]: approximately 8 fold; MIC corresponding to an activity enhanced as compared to tulathromycin [6]: ≥ 4 fold; antibacterial activities as compared to the existing drugs [6]: remarkably strong antibacterial activities |
| CO[C@@H]1[C@@H](O[C@@H]2O[C@H](C)[C@@H](O[C@H]3C[C@@](C)(O)[C@@H](OC(=O)CC(C)C)[C@H](C)O3)[C@H](N(C)C)[C@H]2O)[C@@H](CC=O)C[C@@H](C)[C@@H](O)/C=C/C=C/C[C@@H](C)OC(=O)C[C@H]1OC(C)=O [JM, josamycin] | 8 mg/L (≈ 9.66 µM) | 32 mg/L (≈ 38.6 µM) | 32 mg/L (≈ 38.6 µM) | 64 mg/L (≈ 77.3 µM) | 16 mg/L (≈ 19.3 µM) | 8 mg/L (≈ 9.66 µM) | 16 mg/L (≈ 19.3 µM) | 16 mg/L (≈ 19.3 µM) | 32 mg/L (≈ 38.6 µM) | 64 mg/L (≈ 77.3 µM) | 32 mg/L (≈ 38.6 µM) | 16 mg/L (≈ 19.3 µM) | 8 mg/L (≈ 9.66 µM) | 32 mg/L (≈ 38.6 µM) | 32 mg/L (≈ 38.6 µM) | 32 mg/L (≈ 38.6 µM) | 2 mg/L (≈ 2.42 µM) | 8 mg/L (≈ 9.66 µM) |  |
| CCCNC[C@]1(O)[C@H](C)O[C@@H](O[C@H]2[C@H](C)[C@@H](O[C@@H]3O[C@H](C)C[C@H](N(C)C)[C@H]3O)[C@](C)(O)C[C@@H](C)CN[C@H](C)[C@@H](O)[C@](C)(O)[C@@H](CC)OC(=O)[C@@H]2C)C[C@@]1(C)OC [TLM, tulathromycin] |  |  |  |  |  |  |  |  |  |  |  |  |  |  |  |  |  |  | MIC ([1]; H. parasuis strain 11510-1): 4 mg/L (≈ 4.96 µM); MIC ([1]; H. parasuis strain 11640-1): 8 mg/L (≈ 9.92 µM); MIC ([2]; A. pleuropneumoniae strain 10895-2): 16 mg/L (≈ 19.8 µM); MIC ([2]; A. pleuropneumoniae strain 11684-7): 64 mg/L (≈ 79.4 µM); MIC ([2]; A. pleuropneumoniae strain 11796-1): 16 mg/L (≈ 19.8 µM); MIC ([2]; A. pleuropneumoniae strain 11804-2): 16 mg/L (≈ 19.8 µM); MIC ([2]; A. pleuropneumoniae strain ATCC27089): 32 mg/L (≈ 39.7 µM); MIC ([3]; M. haemolytica strain 11443): 16 mg/L (≈ 19.8 µM); MIC ([3]; M. haemolytica strain 11467-2): 32 mg/L (≈ 39.7 µM); MIC ([4]; P. multocida (bovine) strain 11272): 16 mg/L (≈ 19.8 µM); MIC ([4]; P. multocida (bovine) strain 11325-1): 4 mg/L (≈ 4.96 µM); MIC ([4]; P. multocida (bovine) strain 11787-24): 8 mg/L (≈ 9.92 µM); MIC ([4]; P. multocida (bovine) strain ATCC43019): 16 mg/L (≈ 19.8 µM); MIC ([4]; P. multocida (swine) strain 11587-3): 16 mg/L (≈ 19.8 µM); MIC ([4]; P. multocida (swine) strain 11745-15): 8 mg/L (≈ 9.92 µM); MIC ([4]; P. multocida (swine) strain ATCC43137): 16 mg/L (≈ 19.8 µM); MIC ([5]; H. somni strain 11321): 1 mg/L (≈ 1.24 µM); MIC ([5]; H. somni strain 11423-3): 1 mg/L (≈ 1.24 µM) |
| CC[C@H]1OC(=O)C[C@@H](O)[C@H](C)[C@@H](O[C@@H]2O[C@H](C)[C@@H](O)[C@H](N(C)C)[C@H]2O)[C@@H](CCN2C[C@H](C)C[C@H](C)C2)C[C@@H](C)C(=O)/C=C/C(C)=C/[C@@H]1CO[C@@H]1O[C@H](C)[C@@H](O)[C@@H](OC)[C@H]1OC [TMS, tilmicosin] | 1 mg/L (≈ 1.15 µM) | 16 mg/L (≈ 18.4 µM) | 16 mg/L (≈ 18.4 µM) | 128 mg/L (≈ 147 µM) | 16 mg/L (≈ 18.4 µM) | 16 mg/L (≈ 18.4 µM) | 16 mg/L (≈ 18.4 µM) | 16 mg/L (≈ 18.4 µM) | 8 mg/L (≈ 9.2 µM) | 32 mg/L (≈ 36.8 µM) | 16 mg/L (≈ 18.4 µM) | 32 mg/L (≈ 36.8 µM) | 16 mg/L (≈ 18.4 µM) | 16 mg/L (≈ 18.4 µM) | 16 mg/L (≈ 18.4 µM) | 16 mg/L (≈ 18.4 µM) | 1 mg/L (≈ 1.15 µM) | 4 mg/L (≈ 4.6 µM) |  |
| CC[C@H]1OC(=O)C[C@@H](O)[C@H](C)[C@@H](O[C@@H]2O[C@H](C)[C@@H](O[C@H]3C[C@@](C)(O)[C@@H](O)[C@H](C)O3)[C@H](N(C)C)[C@H]2O)[C@@H](CC=O)C[C@@H](C)C(=O)/C=C/C(C)=C/[C@@H]1CO[C@@H]1O[C@H](C)[C@@H](O)[C@@H](OC)[C@H]1OC [TS, tylosin] | 4 mg/L (≈ 4.37 µM) | 8 mg/L (≈ 8.73 µM) | 16 mg/L (≈ 17.5 µM) | 256 mg/L (≈ 279 µM) | 32 mg/L (≈ 34.9 µM) | 32 mg/L (≈ 34.9 µM) | 32 mg/L (≈ 34.9 µM) | 16 mg/L (≈ 17.5 µM) | 128 mg/L (≈ 140 µM) | 64 mg/L (≈ 69.9 µM) | 64 mg/L (≈ 69.9 µM) | 64 mg/L (≈ 69.9 µM) | 16 mg/L (≈ 17.5 µM) | 32 mg/L (≈ 34.9 µM) | 64 mg/L (≈ 69.9 µM) | 64 mg/L (≈ 69.9 µM) | 1 mg/L (≈ 1.09 µM) | 4 mg/L (≈ 4.37 µM) |  |
| aivlosin |  |  |  |  |  |  |  |  |  |  |  |  |  |  |  |  |  |  | MIC [1]: 16 mg/L and 32 mg/L; MIC [2]: 32 mg/L and 64 mg/L; MIC [3]: 32 mg/L and 64 mg/L; MIC [4]: 256 mg/L and 128 mg/L |
